The numbers were not newly measured in patent US20090175824A1, “Peptides for the treatment of HCV infections” (priority 2007, published 2009), which cites them from elsewhere.

The conditions of the data set: patients with hepatitis C.

Molecules are shown by their SMILES.

As to `CC(C)(C)NC(=O)NC(C(=O)N1CC2C(C1C(=O)NC(CC1CCC1)C(=O)C(N)=O)C2(C)C)C(C)(C)C` (centres unmarked) [boceprevir, N-(4-amino-1-cyclobutyl-3,4-dioxobutan-2-yl)-3-(2-(3-tert-butylureido)-3,3-dimethylbutanoyl)-6,6-dimethyl-3-azabicyclo[3.1.0]hexane-2-carboxamide], the adverse events entry was “infrequent and included headache, fever and myalgia”; the tolerability result is “well-tolerated”.
